Read-outs that look alike come from different tables or passages of the source.
Experiments:
[1] = system: Enterobacter cloacae (ECL) isolates; test: MIC of compounds alone and combined with antibacterials, broth microdilution (CLSI); format: cell-based; conditions: Enterobacter cloacae, read-out: MIC
Outline: (§1)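 First, log-phase suspensions are brought to 5.10^5 CFU/mL final in ca-MHB; plates then incubate 16-20 h at 35° C in air. Growth is judged visually, giving the compound MIC alone and the antibacterial MIC at each compound concentration.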

[2] = system: Escherichia coli (ECO) isolates; test: as above; format: cell-based; conditions: Escherichia coli, read-out: MIC
Outline: as §1

For `O=C1N2CC(n3cccn3)=CC(C2)N1OC(F)(F)C(=O)[O-].[Li+]` (centres unmarked) [AF3], the MIC ([1]; ECL 2185D, alone) was 32 µg/mL, the MIC ([1]; ECL 190310, alone) was 32 µg/mL and the MIC ([1]; ECL 190408, alone) was 4 µg/mL. For the same molecule, the MIC ([1]; ECL 200138, alone) was 16 µg/mL, the MIC ([1]; ECL 200322, alone) was 8 µg/mL and the MIC ([1]; ECL 260033, alone) was 16 µg/mL. It also gave an MIC ([1]; ECL 260253, alone) of 32 µg/mL, an MIC ([1]; ECL 260323, alone) of 16 µg/mL and an MIC ([1]; ECL 260508, alone) of 8 µg/mL. The MIC ([1]; ECL HAN, alone) was 32 µg/mL, the MIC ([1]; ECL NEM146383, alone) was 16 µg/mL and the MIC ([1]; ECL P99, alone) was 16 µg/mL. For the same molecule, the MIC ([1]; ECL UFR12, alone) was 8 µg/mL, the MIC ([1]; ECL UFR13, alone) was 32 µg/mL and the MIC ([1]; ECL UFR14, alone) was 32 µg/mL. For the same molecule, the MIC ([1]; ECL UFR38, alone) was 8 µg/mL, the MIC ([1]; ECL UFR51, alone) was 8 µg/mL and the MIC ([1]; ECL UFR60, alone) was 16 µg/mL. It also gave an MIC ([1]; ECL UFR70, alone) of 8 µg/mL, an MIC ([1]; ECL UFR84, alone) of 32 µg/mL and an MIC ([1]; ECL UFR85, alone) of 16 µg/mL. It also gave an MIC ([1]; ECL UFR200, alone) of 16 µg/mL, an MIC ([1]; strain ECL UFR192, compound alone) of 32 µg/mL and an MIC ([1]; strain ECL UFR193, compound alone) of 16 µg/mL. The MIC ([1]; strain ECL UFR194, compound alone) was 16 µg/mL, the MIC ([1]; strain ECL UFR195, compound alone) was 16 µg/mL and the MIC ([1]; strain ECL UFR196, compound alone) was 16 µg/mL. It also gave an MIC ([1]; strain ECL UFR197, compound alone) of 16 µg/mL, an MIC ([1]; strain ECL UFR198, compound alone) of 32 µg/mL and an MIC ([1]; strain ECL UFR203, compound alone) of 32 µg/mL. It also gave an MIC ([1]; strain ECL UFR214, compound alone) greater than 32 µg/mL, an MIC ([1]; strain ECL UFR252PT, compound alone) greater than 32 µg/mL and an MIC ([2]; ECO 4133, alone) of 4 µg/mL. It also gave an MIC ([2]; ECO 5302, alone) of 4 µg/mL, an MIC ([2]; ECO 131119, alone) of 4 µg/mL and an MIC ([2]; ECO 180070, alone) of 4 µg/mL. It also gave an MIC ([2]; ECO 190314, alone) of 8 µg/mL, an MIC ([2]; ECO 190317, alone) of 4 µg/mL and an MIC ([2]; ECO 190457, alone) of 4 µg/mL. For the same molecule, the MIC ([2]; ECO 190549, alone) was 4 µg/mL, the MIC ([2]; ECO 200159, alone) was 4 µg/mL and the MIC ([2]; ECO 200259, alone) was 4 µg/mL. It also gave an MIC ([2]; ECO 200344, alone) of 4 µg/mL, an MIC ([2]; ECO 260096, alone) of 16 µg/mL and an MIC ([2]; ECO 260304, alone) of 8 µg/mL. The MIC ([2]; ECO 260508, alone) was 8 µg/mL, the MIC ([2]; ECO (strain number on grid row 356, not shown), alone) was 8 µg/mL and the MIC ([2]; ECO RGN238, alone) was 8 µg/mL. For the same molecule, the MIC ([2]; ECO UFR15, alone) was 8 µg/mL, the MIC ([2]; ECO UFR16, alone) was 8 µg/mL and the MIC ([2]; ECO UFR17, alone) was greater than 32 µg/mL. It also gave an MIC ([2]; ECO UFR18, alone) of 8 µg/mL, an MIC ([2]; ECO UFR19, alone) of 8 µg/mL and an MIC ([2]; ECO UFR32, alone) of 8 µg/mL. For the same molecule, the MIC ([2]; ECO UFR39, alone) was 8 µg/mL, the MIC ([2]; ECO UFR41, alone) was 8 µg/mL and the MIC ([2]; ECO UFR45, alone) was 4 µg/mL. It also gave an MIC ([2]; ECO UFR52, alone) of 8 µg/mL, an MIC ([2]; ECO UFR61O, alone) of 16 µg/mL and an MIC ([2]; ECO UFR62, alone) of 8 µg/mL. For the same molecule, the MIC ([2]; ECO UFR74, alone) was 8 µg/mL, the MIC ([2]; ECO UFR86, alone) was 16 µg/mL and the MIC ([2]; ECO UFR174, alone) was 4 µg/mL. It also gave an MIC ([2]; ECO UFR175, alone) of 16 µg/mL, an MIC ([2]; ECO UFR176, alone) of 8 µg/mL and an MIC ([2]; ECO UFR184, alone) of 8 µg/mL. For the same molecule, the MIC ([2]; ECO UFR208, alone) was 16 µg/mL, the MIC ([2]; ECO UFR209, alone) was 8 µg/mL and the MIC ([2]; ECO UFR210, alone) was 4 µg/mL. For the same molecule, the MIC ([2]; ECO UFR211, alone) was 8 µg/mL, the MIC ([2]; ECO UFR212, alone) was 8 µg/mL and the MIC ([2]; ECO URF20, alone) was 8 µg/mL. For the same molecule, the MIC ([2]; strain ECO UFR177, compound alone) was 8 µg/mL, the MIC ([2]; strain ECO UFR178, compound alone) was 16 µg/mL and the MIC ([2]; strain ECO UFR179, compound alone) was 16 µg/mL. For the same molecule, the MIC ([2]; strain ECO UFR180, compound alone) was 8 µg/mL, the MIC ([2]; strain ECO UFR181, compound alone) was 16 µg/mL and the MIC ([2]; strain ECO UFR182, compound alone) was 16 µg/mL. The MIC ([2]; strain ECO UFR183, compound alone) was 32 µg/mL, the MIC ([2]; strain ECO UFR186, compound alone) was 8 µg/mL and the MIC ([2]; strain ECO UFR187, compound alone) was 32 µg/mL. For the same molecule, the MIC ([2]; strain ECO UFR189, compound alone) was 8 µg/mL, the MIC ([2]; strain ECO UFR190, compound alone) was 8 µg/mL and the MIC ([2]; strain ECO UFR191, compound alone) was 8 µg/mL. For the same molecule, the MIC ([2]; strain ECO UFR204, compound alone) was 8 µg/mL, the MIC ([2]; strain ECO UFR205, compound alone) was 8 µg/mL and the MIC ([2]; strain ECO UFR206, compound alone) was 16 µg/mL. For the same molecule, the MIC ([2]; strain ECO UFR252GO, compound alone) was 8 µg/mL and the MIC ([2]; strain ECO UFR255, compound alone) was 4 µg/mL.
